Results published in patent publication US20150218212A1, “FLUORINATED EPOXYKETONE-BASED TETRAPEPTIDE COMPOUNDS AND USES THEREOF AS PROTEASOME INHIBITORS” (FLUORINOV PHARMA INC., priority 2012, published 2015).

Columns and labels:
Format in all cases: cell-based, human
[1] = tested on: CAKI-1; test: NCI screening panel, CAKI-1 (Renal Cancer)
Experimental: (§1) Representative compounds of Formula I were screened using the National Cancer Institute (NCI) screening panel, which consists of a panel of human tumor cell lines, representing leukemia, melanoma, and cancers of the lung, colon, ovary, breast, prostate and renal system.
(§2) After 24 h, two plates of each cell line are fixed in situ with TCA, to represent a measurement of the cell population for each cell line at the time of drug addition (Tz). Experimental drugs are solubilised in dimethyl sulfoxide at 400-fold the desired final maximum test concentration and stored frozen prior to use. At the time of drug addition, an aliquot of frozen concentrate is thawed and diluted to twice the desired final maximum test concentration with complete medium containing 50 μg/mL gentamicin. Additional four, 10-fold or ½ log serial dilutions are made to provide a total of five drug concentrations plus control. Aliquots of 100 μl of these different drug dilutions are added to the appropriate microtiter wells already containing 100 μl of medium, resulting in the required final drug concentrations.
(§3) Following drug addition, the plates are incubated for an additional 48 h at 37° C., 5% CO2, 95% air, and 100% relative humidity. For adherent cells, the assay is terminated by the addition of cold TCA (trichloroacetic acid). Cells are fixed in situ by the gentle addition of 50 μl of cold 50% (w/v) TCA (final concentration, 10% TCA) and incubated for 60 minutes at 4° C. The supernatant is discarded, and the plates are washed five times with tap water and air dried. Sulforhodamine B (SRB) solution (100 μl) at 0.4% (w/v) in 1% acetic acid is added to each well, and plates are incubated for 10 minutes at room temperature. After staining, unbound dye is removed by washing five times with 1% acetic acid and the plates are air dried. Bound stain is subsequently solubilised with 10 mM trizma base, and the absorbance is read on an automated plate reader at a wavelength of 515 nm. For suspension cells, the methodology is the same except that the assay is terminated by fixing settled cells at the bottom of the wells by gently adding 50 μl of 80% TCA (final concentration, 16% TCA). Using the seven absorbance measurements [time zero, (Tz), control growth, (C), and test growth in the presence of drug at the five concentration levels (Ti)], the percentage growth is calculated at each of the drug concentrations levels. Percentage growth inhibition is calculated as: [(Ti−Tz)/(C−Tz)]×100 for concentrations for which Ti>/=Tz and [(Ti−Tz)/Tz]×100 for concentrations for which Ti<Tz.
(§4) Three dose response parameters are calculated for each experimental agent. Growth inhibition of 50% (GI50) is calculated from [(Ti−Tz)/(C−Tz)]×100=50, which is the drug concentration resulting in a 50% reduction in the net protein increase (as measured by SRB staining) in control cells during the drug incubation. The drug concentration resulting in total growth inhibition (TGI) is calculated from Ti=Tz. The LC50 (concentration of drug resulting in a 50% reduction in the measured protein at the end of the drug treatment as compared to that at the beginning) indicating a net loss of cells following treatment is calculated from [(Ti−Tz)/Tz]×100=−50. Values are calculated for each of these three parameters if the level of activity is reached. However, if the effect is not reached or is exceeded, the value for that parameter is expressed as greater or less than the maximum or minimum concentration tested.

[2] = tested on: SF-268; test: NCI screening panel, SF-268 (CNS Cancer)
Experimental: as §1, §2, §3, §4

[3] = tested on: NCI-H226; test: NCI screening panel, NCI-H226 (Non-Small Cell Lung Cancer)
Experimental: as §1, §2, §3, §4

[4] = tested on: PC-3; test: NCI screening panel, PC-3 (Prostate Cancer)
Experimental: as §1, §2, §3, §4

[5] = tested on: OVCAR-5; test: NCI screening panel, OVCAR-5 (Ovarian Cancer)
Experimental: as §1, §2, §3, §4

[6] = tested on: HOP-62; test: NCI screening panel, HOP-62 (Non-Small Cell Lung Cancer)
Experimental: as §1, §2, §3, §4

[7] = tested on: UACC-257; test: NCI screening panel, UACC-257 (Melanoma)
Experimental: as §1, §2, §3, §4

[8] = tested on: SW-620; test: NCI screening panel, SW-620 (Colon Cancer)
Experimental: as §1, §2, §3, §4

[9] = tested on: MOLT-4; test: NCI screening panel, MOLT-4 (Leukemia)
Experimental: as §1, §2, §3, §4

[10] = tested on: HCT-116; test: NCI screening panel, HCT-116 (Colon Cancer)
Experimental: as §1, §2, §3, §4

[11] = tested on: T-47D; test: NCI screening panel, T-47D (Breast Cancer)
Experimental: as §1, §2, §3, §4

[12] = tested on: TK-10; test: NCI screening panel, TK-10 (Renal Cancer)
Experimental: as §1, §2, §3, §4

[13] = tested on: OVCAR-8; test: NCI screening panel, OVCAR-8 (Ovarian Cancer)
Experimental: as §1, §2, §3, §4

[14] = tested on: HCC-2998; test: NCI screening panel, HCC-2998 (Colon Cancer)
Experimental: as §1, §2, §3, §4

[15] = tested on: NCI-H322M; test: NCI screening panel, NCI-H322M (Non-Small Cell Lung Cancer)
Experimental: as §1, §2, §3, §4

[16] = tested on: NCI-H23; test: NCI screening panel, NCI-H23 (Non-Small Cell Lung Cancer)
Experimental: as §1, §2, §3, §4

[17] = tested on: SK-MEL-28; test: NCI screening panel, SK-MEL-28 (Melanoma)
Experimental: as §1, §2, §3, §4

[18] = tested on: SF-295; test: NCI screening panel, SF-295 (CNS Cancer)
Experimental: as §1, §2, §3, §4

[19] = tested on: MALME-3M; test: NCI screening panel, MALME-3M (Melanoma)
Experimental: as §1, §2, §3, §4

CC(C)C[C@H](NC(=O)[C@H](COC(F)F)NC(=O)CN1CCOCC1)C(=O)N[C@@H](Cc1ccccc1)C(=O)N[C@@H](CC(C)C)C(=O)[C@@]1(C)CO1 [Example 2, (2S)-N-[(1S)-1-benzyl-2-[[(1S)-3-methyl-1-[(2R)-2-methyloxirane-2-carbonyl]butyl]-amino]-2-oxo-ethyl]-2-[[(2S)-3-(difluoromethoxy)-2-[(2-morpholinoacetyl)amino]propanoyl]amino]-4-methyl-pentanamide]
Log10GI50 [1]: −6.68 | Log10LC50 [1]: >−4.00 | Log10TGI50 [1]: −5.93 | Log10GI50 [2]: −7.81 | Log10LC50 [2]: >−4.00 | Log10TGI50 [2]: −7.20 | Log10GI50 [3]: −7.83 | Log10LC50 [3]: −7.12 | Log10TGI50 [3]: −7.48 | Log10GI50 [4]: −7.57 | Log10LC50 [4]: −5.62 | Log10TGI50 [4]: −6.93 | Log10GI50 [5]: −7.47 | Log10LC50 [5]: −4.54 | Log10TGI50 [5]: −6.70 | Log10GI50 [6]: −7.90 | Log10LC50 [6]: −7.04 | Log10TGI50 [6]: −7.47 | Log10GI50 [7]: −7.23 | Log10LC50 [7]: −4.58 | Log10TGI50 [7]: −6.43 | Log10GI50 [8]: <−8.00 | Log10LC50 [8]: >−4.00 | Log10TGI50 [8]: −5.92 | Log10GI50 [9]: <-8.00 | Log10LC50 [9]: >−4.00 | Log10TGI50 [9]: −5.79 | Log10GI50 [10]: <-8.00 | Log10LC50 [10]: −6.97 | Log10TGI50 [10]: −7.72 | Log10GI50 [11]: <−8.00 | Log10TGI50 [11]: −7.55 | Log10GI50 [12]: −7.47 | Log10LC50 [12]: >−4.00 | Log10TGI50 [12]: −5.73 | Log10GI50 [13]: −7.22 | Log10LC50 [13]: >−4.00 | Log10TGI50 [13]: −6.25 | Log10GI50 [14]: −7.77 | Log10LC50 [14]: −7.15 | Log10TGI50 [14]: −7.46 | Log10GI50 [15]: −7.01 | Log10LC50 [15]: −5.35 | Log10TGI50 [15]: −6.43 | Log10GI50 [16]: −7.73 | Log10LC50 [16]: >−4.00 | Log10TGI50 [16]: −6.67 | Log10GI50 [17]: −7.50 | Log10LC50 [17]: −5.23 | Log10TGI50 [17]: −6.71 | Log10GI50 [18]: −7.80 | Log10LC50 [18]: −6.42 | Log10TGI50 [18]: −7.28

CC(C)C[C@H](NC(=O)[C@H](COC(F)F)NC(=O)CN1CCOCC1)C(=O)N[C@@H](Cc1ccccc1)C(=O)N[C@@H](Cc1ccccc1)C(=O)[C@@]1(C)CO1 [Example 3, (2S)-N-[(1S)-1-benzyl-2-[[(1S)-1-benzyl-2-[(2R)-2-methyloxiran-2-yl]-2-oxo-ethyl]amino]-2-oxo-ethyl]-2-[[(2S)-3-(difluoromethoxy)-2-[(2-morpholinoacetyl)-amino]propanoyl]amino]-4-methyl-pentan-amide]
Log10GI50 [1]: −7.11 | Log10LC50 [1]: −4.92 | Log10TGI50 [1]: −6.30 | Log10GI50 [2]: <−8.00 | Log10LC50 [2]: −4.98 | Log10TGI50 [2]: −7.40 | Log10GI50 [19]: −7.65 | Log10LC50 [19]: >−4.00 | Log10TGI50 [19]: −7.07 | Log10GI50 [3]: <−8.00 | Log10LC50 [3]: −7.24 | Log10TGI50 [3]: −7.92 | Log10GI50 [4]: −7.73 | Log10LC50 [4]: −6.09 | Log10TGI50 [4]: −7.04 | Log10GI50 [5]: −7.42 | Log10LC50 [5]: >−4.00 | Log10TGI50 [5]: −5.86 | Log10GI50 [6]: <−8.00 | Log10LC50 [6]: −4.76 | Log10TGI50 [6]: −7.20 | Log10GI50 [7]: −7.23 | Log10LC50 [7]: −4.53 | Log10TGI50 [7]: −6.40 | Log10GI50 [8]: <−8.00 | Log10LC50 [8]: −4.27 | Log10TGI50 [8]: −6.63 | Log10GI50 [9]: <−8.00 | Log10TGI50 [9]: >−4.00 | Log10GI50 [10]: <−8.00 | Log10LC50 [10]: >−4.00 | Log10TGI50 [10]: −7.34 | Log10GI50 [11]: <−8.00 | Log10TGI50 [11]: −7.59 | Log10GI50 [12]: −7.55 | Log10LC50 [12]: >−4.00 | Log10TGI50 [12]: −5.91 | Log10GI50 [13]: −7.25 | Log10LC50 [13]: >−4.00 | Log10TGI50 [13]: −6.29 | Log10GI50 [14]: −7.78 | Log10LC50 [14]: −7.18 | Log10TGI50 [14]: −7.48 | Log10GI50 [15]: −7.12 | Log10LC50 [15]: −5.14 | Log10TGI50 [15]: −6.44 | Log10GI50 [16]: <−8.00 | Log10LC50 [16]: −4.33 | Log10TGI50 [16]: −6.69 | Log10GI50 [17]: −7.65 | Log10LC50 [17]: >−4.00 | Log10TGI50 [17]: −6.27 | Log10GI50 [18]: −7.34 | Log10LC50 [18]: −6.24 | Log10TGI50 [18]: −6.75
